According to publication PMC7485941 (Clinical and Translational Science, 2020):
“Also recorded” adds a separate entry of the source.

Tests used:
[1] = test system: healthy subjects; test: 12-lead ECG by time-point and categorical outlier analysis in the TQT study; assay type: in vivo, human
[2] = test system: healthy subjects; test: Concentration-QTc; assay type: in vivo, human; details: for Predicted (90% CI) ΔΔQTcF at geometric mean peak concentration: PK/QTc population
[3] = test system: healthy subjects; test: Safety and tolerability; assay type: in vivo, human; details: for overall percentage of TEAEs: part B
[4] = test system: hERG channels; test: In vitro hERG ion channel assay; assay type: cell-based, human; details: 160 mg twice daily
[5] = cited from earlier work
[6] = Plasma pharmacokinetics in the TQT study; details: for Cmax: Geometric mean Cmax (90% CI), PK/QTc population
[7] = test system: QTc interval; details: therapeutic and supratherapeutic concentrations; cited from earlier work

Structure (SMILES): COc1c(N2C[C@@H]3CCCN[C@@H]3C2)c(F)cc2c(=O)c(C(=O)O)cn(C3CC3)c12 [Moxifloxacin, moxifloxacin, reference compound]
- peak effect, mean ΔΔQTcF ([1]; moxifloxacin 400 mg, at 2.5 hours postdose): 12.9 ms
- mean ΔΔQTcF ([1]; moxifloxacin 400 mg, between 1 and 4 hours postdose): above 10 msec
- estimated population slope of the C-QTc relationship ([2]; moxifloxacin): 0.005 msec per ng/mL
- intercept of the C-QTc relationship ([2]; moxifloxacin): 3.1 ms
- overall percentage of TEAEs ([3]; moxifloxacin 400 mg): 22.2%

Structure (SMILES): C=CC(=O)N1CCC([C@@H]2CCNc3c(C(N)=O)c(-c4ccc(Oc5ccccc5)cc4)nn32)CC1 [Zanubrutinib]
- Mean placebo-corrected change from baseline heart rate (ΔΔHR), magnitude (±) ([1]; all postdose time points, 160 and 480 mg): < 5 bpm
- Mean ΔΔPR ([1]; all time points after dosing with zanubrutinib): < 5 ms
- upper bound of the 90% CI of ΔΔQTcF ([1]; any postdose time point, both zanubrutinib doses): ≤ 1.2 ms
- participants with HR outlier values ([1]; categorical outlier analysis): no participant with HR outlier values
- participants with outlier QTcF values (> 450 msec) ([1]; categorical outlier analysis, zanubrutinib 160 and 480 mg): No participants had outlier QTcF values; also recorded: no participant had outlier values
- participants with outlier ΔQTcF values (> 30 msec) ([1]; categorical outlier analysis, zanubrutinib groups): No participant had outlier ΔQTcF values
- effect on QTc interval ([1]; single 160-mg or 480-mg dose): did not prolong the QTc interval
- Predicted (90% CI) ΔΔQTcF at geometric mean peak concentration ([2]; 160 mg, n = 27): −3.16 (−4.51 to −1.81) msec
- Predicted (90% CI) ΔΔQTcF at geometric mean peak concentration ([2]; 480 mg, n = 28): −3.38 (−4.86 to −1.89) msec
- exposure margin, hERG IC50 over clinical steady-state unbound Cmax [4]: ~ 217 fold
- SAEs or grade 3 or higher AEs related to administration ([3]; part A, 480 mg single dose, n = 6): no SAEs or grade 3 or higher AEs
- overall percentage of TEAEs ([3]; zanubrutinib 160 mg): 10.0%
- overall percentage of TEAEs ([3]; zanubrutinib 480 mg): 13.3%
- mean Cmax ([5]; 160 mg, patients with B-cell malignancy): 346 ng/mL
- mean terminal elimination half-life (t ½) ([5]; oral administration): 2 to 4 h
- clinical steady-state unbound Cmax ([5]; recommended phase III dose of 160 mg twice daily, no reference given): 42 nM
- highest observed plasma concentration in the TQT study ([6]; concentration range included in C-QTc modeling): ≈ 800 ng/mL
- Cmax ([6]; human, in vivo, 160 mg, n = 27): 215 ng/mL
- Cmax ([6]; human, in vivo, 480 mg, n = 28): 401 ng/mL
- half-life ([6]; human, in vivo, 480 mg, mean t ½, 480-mg dose, range over part A and part B): 8.1 to 11 h
- Tmax ([6]; human, in vivo, 480 mg, median Tmax, range over part A and part B, 160 and 480 mg, postdose): 1.5 to 2.8 h

Structure (SMILES): CC#CC(=O)N1CCC[C@H]1c1nc(-c2ccc(C(=O)Nc3ccccn3)cc2)c2c(N)nccn12 [acalabrutinib]
- effect on QTc interval [7]: not to prolong the QTc interval
